Reference: patent publication US11932850B2, “Cancer chemoprevention with STAT3 blockers” (Jill M. Siegfried, LLC, priority 2018, dated 2024)

Target: T1, pSTAT3-ubiquitin complexes in H1975 cells (Homo sapiens, UniProt P40763)
T1 construct: Post-transfection with either 100 nM CS3D or CS3M, H1975 were lysed in IP lysis buffer; endogenous in cells; host or cells: H1975
Assay: p-STAT3 immunoprecipitation and ubiquitin immunoblot
Assay type: cell-based
Settings: H1975, 100 nM, 24 hr post-transfection

T1 sequence (P40763 2-770 limits assumed, one chain of several): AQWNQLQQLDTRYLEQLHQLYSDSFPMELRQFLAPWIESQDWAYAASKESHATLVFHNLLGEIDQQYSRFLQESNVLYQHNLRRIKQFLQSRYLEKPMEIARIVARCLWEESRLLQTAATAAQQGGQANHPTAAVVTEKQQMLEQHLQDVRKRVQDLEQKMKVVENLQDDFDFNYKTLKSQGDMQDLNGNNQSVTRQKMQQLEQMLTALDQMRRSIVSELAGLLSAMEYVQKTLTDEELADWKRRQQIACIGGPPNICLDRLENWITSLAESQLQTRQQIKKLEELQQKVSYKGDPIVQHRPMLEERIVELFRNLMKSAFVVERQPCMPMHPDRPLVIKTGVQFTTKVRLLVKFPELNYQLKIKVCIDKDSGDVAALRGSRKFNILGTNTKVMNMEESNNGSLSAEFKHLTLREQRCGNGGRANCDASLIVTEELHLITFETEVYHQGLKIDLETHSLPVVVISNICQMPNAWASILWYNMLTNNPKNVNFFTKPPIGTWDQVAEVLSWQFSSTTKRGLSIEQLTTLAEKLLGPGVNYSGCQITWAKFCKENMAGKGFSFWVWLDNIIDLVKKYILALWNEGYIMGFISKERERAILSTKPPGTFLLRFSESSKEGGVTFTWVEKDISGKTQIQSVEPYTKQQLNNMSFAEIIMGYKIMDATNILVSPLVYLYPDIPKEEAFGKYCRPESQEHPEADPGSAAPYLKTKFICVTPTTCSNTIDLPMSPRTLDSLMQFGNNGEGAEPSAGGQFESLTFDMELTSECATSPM

## CS3D (DNA GATTTACGGGAAATGCSCATTTCCC; cyclic decoy with two hexaethylene glycol linkers, further chemistry not given here)
  ratio of pSTAT3-ubiquitin complex to STAT3 (densitometry): 0.95
